Experimental data published in PMC5647335, “Controlling the bioactivity of a peptide hormone in vivo by reversible self-assembly” (Nature Communications, 2017).

Tested on: CHO-hGLP-1R cells
Assay type: cell-based, Chinese hamster
Conditions: 48 h treatment, resazurin 5 h, fluorescence 590 nm; Oxm concentrations up to 1000-fold above the EC50; three independent experiments
Method: CHO-hGLP-1R cells in growth medium (DMEM, 10%FBS Sigma-Aldrich) were plated at 10,000 cells per well in 96-well black clear-bottom poly-D-lysine-coated microtiter plates (Corning, USA). […] Fluorescence emission was measured at 590 nm (560 nm excitation).

| SMILES | in vitro cytotoxicity (cell viability) |
| --- | --- |
| Cn1cc(C2=C(c3cn(CCCSC(=N)N)c4ccccc34)C(=O)NC2=O)c2ccccc21 [Ro-318220] | expected curves of concentration vs. loss of cell viability |
| CN[C@@H]1C[C@H]2O[C@@](C)([C@@H]1OC)n1c3ccccc3c3c4c(c5c6ccccc6n2c5c31)C(=O)NC4 [staurosporine] | expected curves of concentration vs. loss of cell viability |
